Laboratory results taken from the supplement of paper PMC11281043.

Key:
Conditions in all cases: exposure: 6-8 hpf to 5 dpf, scored at 6 dpf
Danio rerio embryo/larva [1] = experiment: max % larvae unhatched across tested concentrations; max tested concentration (log10 uM): 2; higher = more toxic
Danio rerio embryo/larva [2] = experiment: max % larvae dead across tested concentrations; max tested concentration (log10 uM): 2; higher = more toxic; extreme values may be limits of the assay
Danio rerio embryo/larva [3] = experiment: max % larvae with any abnormality across tested concentrations; max tested concentration (log10 uM): 2; higher = more toxic; extreme values may be limits of the assay

SMILES | max % larvae unhatched across tested concentrations (Danio rerio embryo/larva [1]) [%] | max % larvae dead across tested concentrations (Danio rerio embryo/larva [2]) [%] | max % larvae (Danio rerio embryo/larva [3]) [%]
O=C(O)C(F)(F)C(F)(F)C(F)F [4H-Perfluorobutanoic acid] | 0 | 0 | 0
O=P(O)(O)OCCC(F)(F)C(F)(F)C(F)(F)C(F)(F)C(F)(F)C(F)(F)F [6:2 Fluorotelomer phosphate monoester] | 0 | 0 | 0
O=S(=O)(O)CCC(F)(F)C(F)(F)C(F)(F)C(F)(F)C(F)(F)C(F)(F)F [6:2 Fluorotelomer sulfonic acid] | 0 | 16.7 | 16.7
O=S(=O)(O)CCC(F)(F)C(F)(F)C(F)(F)C(F)(F)C(F)(F)C(F)(F)C(F)(F)C(F)(F)F [8:2 Fluorotelomer sulfonic acid] | 0 | 0 | 0
O=C(O)C(F)(F)C(F)(F)C(F)(F)C(F)(F)C(F)(F)C(F)(F)C(F)F [8H-Perfluorooctanoic acid] | 0 | 0 | 16.7
O=C(O)C(F)(F)C(F)(F)C(F)(F)C(F)(F)C(F)(F)C(F)(F)C(F)(F)C(F)F [9H-Perfluorononanoic acid] | 0 | 0 | 18.8
C=C(C)C(=O)OCCC(F)(F)C(F)(F)C(F)(F)C(F)(F)C(F)(C(F)(F)F)C(F)(F)F [(Perfluoro-5-methylhexyl)ethyl 2-methylprop-2-enoate] | 0 | 0 | 0
C=C(C)C(=O)OCC(F)(F)C(F)(F)C(F)(F)F [(Perfluoropropyl)methyl methacrylate] | 0 | 0 | 8.33
FC(F)(F)C(F)(F)CNCC(F)(F)C(F)(F)F [Bis(1H,1H-perfluoropropyl)amine] | 0 | 0 | 16.7
CCOC(=O)CC(=O)C(F)(F)C(F)(F)F [Ethyl pentafluoropropionyl acetate] | 0 | 0 | 0
FC(F)(F)C(F)(F)C(F)(F)CI [Heptafluorobutyl iodide] | 0 | 0 | 0
NC(=O)C(F)(F)C(F)(F)C(F)(F)F [Heptafluorobutyramide] | 0 | 16.7 | 25
OCC(F)(F)C(F)(F)C(F)(F)CO [Hexafluoroamylene glycol] | 0 | 0 | 0
O=C(Cl)C(F)(F)C(F)(F)C(F)(F)C(=O)Cl [Hexafluoroglutaryl chloride] | 0 | 0 | 0
COC(=O)C(F)(F)C(F)(F)C(F)(F)C(F)(F)C(F)(F)F [Methyl perfluorohexanoate] | 0 | 0 | 0
CCN(CCO)S(=O)(=O)C(F)(F)C(F)(F)C(F)(F)C(F)(F)C(F)(F)C(F)(F)C(F)(F)C(F)(F)F [N-Ethyl-N-(2-hydroxyethyl)perfluorooctane sulfonamide] | 0 | 0 | 12.5
CN(C(=O)C(F)(F)C(F)(F)C(F)(F)F)[Si](C)(C)C [N-Methyl-N-trimethylsilylheptafluorobutyramide] | 0 | 0 | 0
NC(=O)C(F)(F)C(F)(F)C(F)(F)C(F)(F)F [Nonafluoropentanamide] | 0 | 0 | 0
NC(=O)C(F)(F)C(F)(F)C(F)(F)C(F)(F)C(N)=O [Octafluoroadipamide] | 0 | 0 | 0
O=C(Cl)C(F)(F)C(F)(F)C(F)(F)C(F)(F)C(F)(F)C(F)(F)C(F)(F)F [Pentadecafluorooctanoyl chloride] | 0 | 0 | 16.7
NC(=O)C(F)(F)C(F)(F)F [Pentafluoropropionamide] | 0 | 0 | 0
O=C(O)C(F)(F)C(F)(F)C(F)(F)OC(F)(F)F [Perfluoro(4-methoxybutanoic acid)] | 0 | 0 | 0

SMILES | max % larvae unhatched across tested concentrations (Danio rerio embryo/larva [1]) [%] | max % larvae dead across tested concentrations (Danio rerio embryo/larva [2]) [%] | max % larvae (Danio rerio embryo/larva [3]) [%]
FC(F)(F)C(F)(F)C(F)(F)C(F)(F)C(F)(F)C(F)(F)I [Perfluoro-1-iodohexane] | 0 | 0 | 0
O=S(=O)(O)C(F)(F)C(F)(F)OC(F)(F)C(F)(F)F [Perfluoro-2-ethoxyethanesulfonic acid] | 0 | 0 | 16.7
O=C(O)C(F)(F)OC(F)(F)C(F)(F)OC(F)(F)C(F)(F)OC(F)(F)F [Perfluoro-3,6,9-trioxadecanoic acid] | 0 | 16.7 | 100
O=C(O)C(F)(F)OC(F)(F)C(F)(F)OC(F)(F)F [Perfluoro-3,6-dioxaheptanoic acid] | 0 | 0 | 4.17
O=C(O)C(F)(F)OC(F)(F)C(F)(F)OC(F)(F)C(=O)O [Perfluoro-3,6-dioxaoctane-1,8-dioic acid] | 0 | 0 | 0
O=C(O)C(F)(F)C(F)(F)OC(F)(F)F [Perfluoro-3-methoxypropanoic acid] | 0 | 0 | 16.7
O=C(O)C(F)(F)C(F)(F)C(F)(F)OC(F)(C(F)(F)F)C(F)(F)F [Perfluoro-4-isopropoxybutanoic acid] | 0 | 0 | 0
O=C(O)C(F)(F)C(F)(F)C(=O)O [Perfluorobutanedioic acid] | 0 | 16.7 | 16.7
O=S(=O)(O)C(F)(F)C(F)(F)C(F)(F)C(F)(F)F [Perfluorobutanesulfonic acid] | 0 | 0 | 0
O=C(O)C(F)(F)C(F)(F)C(F)(F)F [Perfluorobutanoic acid] | 0 | 0 | 20
O=C(Cl)C(F)(F)C(F)(F)C(F)(F)C(F)(F)C(F)(F)C(F)(F)F [Perfluoroheptanoyl chloride] | 0 | 0 | 16.7
O=C(O)C(F)(F)C(F)(F)C(F)(F)C(F)(F)C(=O)O [Perfluorohexanedioic acid] | 0 | 0 | 0
O=C(O)C(F)(F)C(F)(F)C(F)(F)C(F)(F)C(F)(F)F [Perfluorohexanoic acid] | 0 | 0 | 0
NC(=O)C(F)(F)C(F)(F)C(F)(F)C(F)(F)C(F)(F)C(F)(F)C(F)(F)F [Perfluorooctanamide] | 0 | 0 | 0
NC(=O)C(F)(F)C(F)(F)C(F)(F)C(F)F [Perfluoropentanamide] | 0 | 0 | 0
O=C(O)C(F)(F)C(F)(F)C(F)(F)C(=O)O [Perfluoropentanedioic acid] | 0 | 0 | 0
O=C(O)C(F)(F)C(F)(F)C(F)(F)C(F)(F)F [Perfluoropentanoic acid] | 0 | 0 | 25
O=C(O)C(F)(F)C(F)(F)F [Perfluoropropanoic acid] | 0 | 0 | 0
O=S(=O)(O)C(F)(F)C(F)(F)C(F)(F)C(F)(F)F [Potassium perfluorobutanesulfonate] | 0 | 0 | 8.33
O=C(O)C(F)(F)C(F)(F)C(F)(F)C(F)(F)C(F)(F)C(F)(F)C(F)(F)F [Potassium perfluorooctanoate] | 0 | 16.7 | 16.7
O=C(O)C(F)(F)C(F)(F)C(F)(F)C(F)(F)C(F)(F)C(F)(F)C(F)(F)F [Sodium perfluorooctanoate] | 0 | 0 | 0
FC(F)(F)COC(OCC(F)(F)F)OCC(F)(F)F [tris(Trifluoroethoxy)methane] | 0 | 0 | 0
